# Measured values reported in US12636311B2, “Topically administered strontium-containing complexes for treating pain, pruritis and inflammation” (Galleon Labs LLC, priority 2012, dated 2026).
# Legend:
# brachioradial pruritus = experiment: Brachioradial pruritus, itch severity reported by subject; format: in vivo, human; details: topical treatment, moderate to severe itch
# Excerpt: A person suffered from brachioradial pruritus for over 20 years, a neuropathic condition that is believed to be caused by compression of cervical nerves that innervate the mid-back and arms. They experienced moderate to severe itching typically most intense on their arms, neck and shoulders.
# During the last several years, the subject treated their condition with either strontium alone (4% or 6% elemental strontium) and with a spray formulation of strontium+ Gallic Acid+ NAC. […] Reapplication 3 or 4 times over a 10-20 minute period increased that anti-itch benefit and reduced the itching by about 50%. […] If itching remained, a second spray eliminated the remaining itching.
# Subsequent blinded tests were performed in which either 4% strontium only or 6% strontium only was directly compared to 4% strontium+ Gallic Acid+ NAC. Since the subject's brachioradial pruritus typically produced itching of approximately equal intensity on both arms in a bilaterally-symmetrical pattern, strontium alone was applied to one arm and strontium+ Gallic Acid+ NAC was applied to the contralateral arm in a double-blinded manner and itch severity was reported by the subject.
# [1] = test system: synchronous neurotransmitter release in response to TCN activation; details: strontium substitutes for calcium; cited from earlier work
# [2] = test system: TCN activation by 70% glycolic acid peel; details: strontium mixed with 70% glycolic acid, pH 0.6; cited from earlier work
Structure (SMILES),Anti-itch benefit (in words) (brachioradial pruritus),Reduction of amplitude of synchronous neurotransmitter release [1],Suppression of burning pain and stinging [2] [%]
CN(C)CCOC(c1ccccc1)c1ccccc1 [diphenhydramine],limited benefit only when the itching was mild,–,–
C[C@]12CCC(=O)C=C1CC[C@@H]1[C@@H]2[C@@H](O)C[C@@]2(C)[C@H]1CC[C@]2(O)C(=O)CO [hydrocortisone],no anti-itch benefit,–,–
[Sr+2] [strontium],–,more than 90%,≥ 80
